Test system: aP2 mRNA production
Assay: aP2 assay for agonist (induction of aP2 mRNA production, bDNA assay)
Type: cell-based
Details: preadipocytes

CCCCCCN1C(=O)C(CCOc2ccccc2CC(=O)O)Oc2ccccc21 (stereo not shown) [Compound 1, Benzeneacetic acid, 2-[2-(4-hexyl-3,4-dihydro-3-oxo-2H-1,4-benzoxazin-2-yl)ethoxy]-]
Agonist Intrinsic Activity: 40.4 fold increase over vehicle

Source: patent US6599899B2, “Benzoxazinones as peroxisome proliferator activated receptor gamma modulators and method of treatment” (Ortho-McNeil Pharmaceutical, Inc., priority 2000, dated 2003)
